Results taken from the CheMixHub ionic liquid set.
± gives the uncertainty stated by the source.

Assay: xn = mol fraction of the nth substance listed
[1] = 298.15 K, 101 kPa, x1 = 0.0003639, x3 = 0
[2] = 298.15 K, 101 kPa, x1 = 0.0006573, x3 = 0
[3] = 298.15 K, 101 kPa, x1 = 0.0009524, x3 = 0
[4] = 298.15 K, 101 kPa, x1 = 0.001251, x3 = 0
[5] = 298.15 K, 101 kPa, x1 = 0.001553, x3 = 0
[6] = 298.15 K, 101 kPa, x1 = 0.001856, x3 = 0
[7] = 308.15 K, 101 kPa, x1 = 0.0003639, x3 = 0
[8] = 308.15 K, 101 kPa, x1 = 0.0006573, x3 = 0
[9] = 308.15 K, 101 kPa, x1 = 0.0009524, x3 = 0
[10] = 308.15 K, 101 kPa, x1 = 0.001251, x3 = 0
[11] = 308.15 K, 101 kPa, x1 = 0.001553, x3 = 0
[12] = 308.15 K, 101 kPa, x1 = 0.001856, x3 = 0
[13] = 318.15 K, 101 kPa, x1 = 0.0003639, x3 = 0
[14] = 318.15 K, 101 kPa, x1 = 0.0006573, x3 = 0
[15] = 318.15 K, 101 kPa, x1 = 0.0009524, x3 = 0
[16] = 318.15 K, 101 kPa, x1 = 0.001251, x3 = 0
[17] = 318.15 K, 101 kPa, x1 = 0.001553, x3 = 0
[18] = 318.15 K, 101 kPa, x1 = 0.001856, x3 = 0

Compound	viscosity [1] [mPa·s]	viscosity [2] [mPa·s]	viscosity [3] [mPa·s]	viscosity [4] [mPa·s]	viscosity [5] [mPa·s]	viscosity [6] [mPa·s]	viscosity [7] [mPa·s]	viscosity [8] [mPa·s]	viscosity [9] [mPa·s]	viscosity [10] [mPa·s]	viscosity [11] [mPa·s]	viscosity [12] [mPa·s]	viscosity [13] [mPa·s]	viscosity [14] [mPa·s]	viscosity [15] [mPa·s]	viscosity [16] [mPa·s]	viscosity [17] [mPa·s]	viscosity [18] [mPa·s]	further results
Cc1ncc(C[n+]2csc(CCO)c2C)c(N)n1.Cl.[Cl-] + O + CCCC[N+](CCCC)(CCCC)CCCC.O=S(=O)([O-])O	0.9024 ± 0.0091	0.914 ± 0.0092	0.9244 ± 0.0092	0.9372 ± 0.0093	0.9488 ± 0.0094	0.959 ± 0.0094	0.7301 ± 0.0083	0.7393 ± 0.0083	0.7485 ± 0.0083	0.7576 ± 0.0084	0.768 ± 0.0084	0.7772 ± 0.0085	0.6037 ± 0.0077	0.6116 ± 0.0077	0.6196 ± 0.0077	0.6275 ± 0.0078	0.6343 ± 0.0078	0.6413 ± 0.0078	
O=C1O[C@H]([C@@H](O)CO)C(O)=C1O + O + CCCC[N+](CCCC)(CCCC)CCCC.O=S(=O)([O-])O	0.899 ± 0.009	0.904 ± 0.009	0.91 ± 0.009	0.916 ± 0.009	0.922 ± 0.009	0.927 ± 0.009	0.724 ± 0.008	0.728 ± 0.008	0.732 ± 0.008	0.738 ± 0.008	0.743 ± 0.008	0.748 ± 0.008	0.6 ± 0.008	0.604 ± 0.008	0.608 ± 0.008	0.612 ± 0.008	0.616 ± 0.008	0.621 ± 0.008	
NC(N)=O + O + CCCC[n+]1ccn(C)c1.F[B-](F)(F)F																			viscosity (298.15 K, 100 kPa, x1 = 0.008492, x2 = 0.9402): 1.98 ± 0.1 mPa·s; viscosity (298.15 K, 100 kPa, x1 = 0.01695, x2 = 0.9318): 2.01 ± 0.1 mPa·s; viscosity (298.15 K, 100 kPa, x1 = 0.02496, x2 = 0.9237): 2.06 ± 0.1 mPa·s; viscosity (298.15 K, 100 kPa, x1 = 0.03322, x2 = 0.9155): 2.05 ± 0.1 mPa·s; viscosity (298.15 K, 100 kPa, x1 = 0.0408, x2 = 0.9079): 2.15 ± 0.11 mPa·s
CC(=O)[O-].[Na+] + O + CCCC[n+]1ccn(C)c1.N#C[S-]																			viscosity (323.15 K, 101 kPa, x1 = 0.08925, x2 = 0.9088): 2.515 ± 0.053 mPa·s
